In test [1] the target is T1, human recombinant PKM2 (Homo sapiens, UniProt P14618).
T1 construct: purchased Sigma SAE0021
Kind of test: Pyruvate kinase activity enzyme assay, recombinant enzyme (LDH-coupled, NADH depletion at 340 nm). The format is biochemical. The note with it: normalized to DMSO-treated PKM2 activity; for EC50: recombinant PKM2 20 nM; for Emax: recombinant PKM2, read-out: Max Activation. The procedure: Pyruvate Kinase Activity Enzyme Assay. Recombinant Enzyme. A continuous, enzyme-coupled assay, which uses lactate dehydrogenase (LDH) and measures the depletion of NADH via absorbance at 340 nm was utilized to determine the pyruvate kinase activity. For AC50 measurements (concentration of activator necessary to achieve half-maximal activation) with ML-265, assays were performed in 96-well format using 200 μL/well assay volume with final concentrations of 20 nM human recombinant PKM2 (Sigma, SAE0021), differing concentrations of ML-265, 0.5 mM PEP, 1 mM ADP, 0.2 mM NADH, and 8 U of lactate dehydrogenase (LDH) in an assay buffer of 50 mM Tris-HCl (pH 7.4), 100 mM KCl, and 5 mM MgCl2. The decrease in absorbance at 340 nm was monitored using a SPECTROstar Omega plate reader (BMG LABTECH Inc., Cary, NC, USA). Initial velocities were calculated with the MARS software. Data were normalized to DMSO (dimethyl sulfoxide)-treated PKM2 activity.

In test [2] the target is T2, pyruvate kinase activity, 661W cell line (Mus musculus, UniProt P52480).
T2 construct: endogenous in cells; host or cells: 661W cell line
T2 sequence (P52480 whole entry): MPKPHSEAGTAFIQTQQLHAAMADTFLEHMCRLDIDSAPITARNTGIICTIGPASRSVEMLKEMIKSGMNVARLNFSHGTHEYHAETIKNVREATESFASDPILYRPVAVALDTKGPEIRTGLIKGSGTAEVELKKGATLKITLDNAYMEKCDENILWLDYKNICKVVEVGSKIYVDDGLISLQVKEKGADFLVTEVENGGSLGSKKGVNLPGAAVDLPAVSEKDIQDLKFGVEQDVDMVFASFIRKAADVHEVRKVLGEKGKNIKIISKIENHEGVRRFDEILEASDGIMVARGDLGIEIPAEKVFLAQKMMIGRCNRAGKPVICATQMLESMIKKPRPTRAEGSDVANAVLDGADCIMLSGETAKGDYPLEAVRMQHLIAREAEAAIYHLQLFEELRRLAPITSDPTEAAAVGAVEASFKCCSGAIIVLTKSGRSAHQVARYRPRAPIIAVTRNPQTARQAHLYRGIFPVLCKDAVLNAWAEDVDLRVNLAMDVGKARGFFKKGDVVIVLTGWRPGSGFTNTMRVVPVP
Kind of test: Pyruvate kinase activity in 661W cell lysates after 2 hours treatment. The test is classed as cell-based. The settings on record: 661W cells, 2 hours incubation, activity normalized to total protein; for Emax: read-out: Max Activation (cell). The procedure:
Cell culture. For 661W cell line experiments, media was replaced prior to the start of treatment with DMSO or ML-265. Cells were incubated with DMSO or different concentrations of ML-265 for 2 hours. Cells were lysed and homogenized in RIPA Lysis and Extraction Buffer (Catalog number: 89900, Life Technologies Corporation, Grand Island, NY) with protease inhibitors (Complete-Mini, Roche Diagnostics, Indianapolis, IN) and cellular debris was removed by centrifugation at 10,000 rpm for 10 minutes. Ten microliters of the supernatant was used to assess pyruvate kinase activity, and the activity was normalized to total protein content as previously described.

T1 sequence (P14618 whole entry): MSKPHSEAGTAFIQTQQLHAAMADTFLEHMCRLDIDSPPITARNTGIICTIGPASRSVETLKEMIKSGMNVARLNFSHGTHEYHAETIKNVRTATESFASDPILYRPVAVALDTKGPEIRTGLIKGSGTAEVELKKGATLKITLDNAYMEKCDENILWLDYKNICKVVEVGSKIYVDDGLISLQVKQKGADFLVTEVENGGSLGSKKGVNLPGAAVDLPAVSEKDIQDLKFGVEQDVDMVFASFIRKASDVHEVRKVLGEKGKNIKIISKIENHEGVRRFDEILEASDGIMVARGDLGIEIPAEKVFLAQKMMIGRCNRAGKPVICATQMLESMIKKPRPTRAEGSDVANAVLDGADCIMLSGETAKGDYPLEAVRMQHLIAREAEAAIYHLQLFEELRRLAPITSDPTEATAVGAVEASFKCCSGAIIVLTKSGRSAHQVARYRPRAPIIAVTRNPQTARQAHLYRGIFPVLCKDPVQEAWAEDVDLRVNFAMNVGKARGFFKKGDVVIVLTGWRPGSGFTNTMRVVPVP

Regarding `Cc1cccc(Cn2ncc3c4ccc(Oc5nccc6[nH]ncc56)cc4n(C)c3c2=O)n1` [Example 64, 7-((1H-pyrazolo[4,3-c]pyridin-4-yl)oxy)-5-methyl-3-((6-methylpyridin-2-yl)methyl)-3,5-dihydro-4H-pyridazino[4,5-b]indol-4-one], in test [1], the EC50 is 69 nM and the Emax worked out at 165%. In addition, in test [2], it took 73 nM to reach a half-maximal effect (EC50) and the Emax stood at 272%.
Consider `Cc1cccc(Cn2ncc3c4ccc(Oc5ncnc6[nH]ncc56)cc4n(C)c3c2=O)n1` [Example 65, 7-((1H-pyrazolo[3,4-d]pyrimidin-4-yl)oxy)-5-methyl-3-((6-methylpyridin-2-yl)methyl)-3,5-dihydro-4H-pyridazino[4,5-b]indol-4-one], for which, in test [1], the EC50 was determined as 43 nM and the Emax was 191%. Besides, in test [2], the EC50 is 115 nM and the Emax stood at 262%.
As for `Cc1cccc(Cn2ncc3c4ccc(Oc5cccc(F)n5)cc4n(C)c3c2=O)n1` [Example 66, 7-((6-fluoropyridin-2-yl)oxy)-5-methyl-3-((6-methylpyridin-2-yl)methyl)-3,5-dihydro-4H-pyridazino[4,5-b]indol-4-one], in test [1], the EC50 was found to be 36 nM and the Emax is 154%. In addition, in test [2], the EC50 was 121 nM and the Emax was determined as 323%.
For the compound `Cc1cccc(Cn2ncc3c4ccc(Oc5cccc(Cl)n5)cc4n(C)c3c2=O)n1` [Example 67, 7-((6-chloropyridin-2-yl)oxy)-5-methyl-3-((6-methylpyridin-2-yl)methyl)-3,5-dihydro-4H-pyridazino[4,5-b]indol-4-one], the EC50 was 49 nM in test [1] and 147 nM in test [2]. Further, the Emax in test [1] came to 277%; in test [2], 290%.
With `Cn1c2cc(Oc3ccc4[nH]ncc4n3)ccc2c2cnn(Cc3ccccc3F)c(=O)c21` [Example 70, 7-((1H-pyrazolo[4,3-b]pyridin-5-yl)oxy)-3-(2-fluorobenzyl)-5-methyl-3,5-dihydro-4H-pyridazino[4,5-b]indol-4-one], the EC50 turned out to be 82 nM in test [1] and 162 nM in test [2]. The values for the Emax in test [1] and in test [2] were 191% and 210%, respectively.
In the case of `Cn1c2cc(Oc3nccc4[nH]ncc34)ccc2c2cnn(Cc3ccccc3F)c(=O)c21` [Example 71, 7-((1H-pyrazolo[4,3-c]pyridin-4-yl)oxy)-3-(2-fluorobenzyl)-5-methyl-3,5-dihydro-4H-pyridazino[4,5-b]indol-4-one], in test [1], the EC50 came to 28 nM and the Emax is 165%. In test [2], the EC50 turned out to be 69 nM and the Emax was 278%.
On to `Cn1c2cc(Oc3cccc(O)n3)ccc2c2cnn(Cc3ccccc3F)c(=O)c21` [Example 72, 3-(2-fluorobenzyl)-7-((6-hydroxypyridin-2-yl)oxy)-5-methyl-3,5-dihydro-4H-pyridazino [4,5-b]indol-4-one], for which the EC50 in test [1] amounted to 55 nM; in test [2], 72 nM. Besides, the Emax in test [1] stood at 206%; in test [2] it was 222%.
`Cn1c2cc(Oc3ncnc4[nH]ncc34)ccc2c2cnn(Cc3ccccc3F)c(=O)c21` [Example 73, 7-((1H-pyrazolo[3,4-d]pyrimidin-4-yl)oxy)-3-(2-fluorobenzyl)-5-methyl-3,5-dihydro-4H-pyridazino[4,5-b]indol-4-one]: in test [1], the EC50 was 22 nM and the Emax turned out to be 232%. In addition, in test [2], the EC50 turned out to be 104 nM and the Emax came out at 189%.
Take `Cn1c2cc(Oc3cccc(F)n3)ccc2c2cnn(Cc3ccccc3F)c(=O)c21` [Example 74, 3-(2-fluorobenzyl)-7-((6-fluoropyridin-2-yl)oxy)-5-methyl-3,5-dihydro-4H-pyridazino[4,5-b]indol-4-one]: the values for the EC50 in test [1] and in test [2] were 62 nM and 81 nM, respectively. Besides, the figures for the Emax in test [1] and in test [2] were 234% and 370%, respectively.

The values are drawn from US20230374017A1, “COMPOSITIONS AND METHODS FOR ACTIVATING PYRUVATE KINASE” (The Regents of the University of Michigan, priority 2020, published 2023).
